Key:
Assay in all cases: Test C rice paddy
ARROWHEAD = format: in vivo, Sagittaria spp.; conditions: Sagittaria, 504 h, 21 days, read-out: plant response
Text: (§1) Sixteen cm diameter Airlite plastic pots were partially filled with Tama slit loam soil and the soil saturated with water. Japonica and Indica rice seedlings a the 2.0 to 2.5 leaf stage were transplanted into 1/3 of the pots. Into another third of the pots were transplanted seedling or sprouted tubers of water plantain (Alisma trivale), Scripus (Scirpus paludosus), Cyperus (Cyperus esculentus), and arrowhead (Sagittaria spp.). The remaining pots were planted with barnyardgrass (Echinochloa crusgalli) seeds and sprouted tubes of water chestnut (Eleocharis spp.). These weeds all represent major rice weeds or genera of weeds important in rice. Three to four days after planting, the water level was raised to 3 cm (about 1200 ml/pot) and maintained a this level throughout the test. Chemical treatments were applied directly to the paddy water, within 24 hours of raising the water, after being formulated in a nonphytotoxic solvent. The pots were maintained in the greenhouse.

SCIRPUS = format: in vivo, Scirpus paludosus; conditions: Bolboschoenus maritimus, 504 h, 21 days, read-out: plant response
Text: as §1

BARNYARDGRASS = format: in vivo, Echinochloa crusgalli; conditions: Echinochloa crus-galli, 504 h, 21 days, read-out: plant response
Text: as §1

RICE INDICA EFF = format: in vivo; conditions: Oryza sativa, 504 h, 21 days, read-out: plant response
Text: as §1

RICE JAP EFF = format: in vivo, Japonica rice; conditions: Oryza sativa, 504 h, 21 days, read-out: plant response
Text: as §1

WATERCHESTNUT = format: in vivo, Eleocharis spp.; conditions: Eleocharis, 504 h, 21 days, read-out: plant response
Text: as §1

WATER PLAINTAIN = format: in vivo, Alisma trivale; conditions: 504 h, 21 days, read-out: plant response
Text: as §1

Compound `C=C(c1cccc(F)c1)C(O)(Cn1cncn1)c1ccc(F)cc1F` (centres unmarked) [Example 18] has a pest or weed control at 64 g/ha (ARROWHEAD; 0064 G/HA) of 0%, a pest or weed control at 125 g/ha (ARROWHEAD; 0125 G/HA) of 0% and a pest or weed control at 250 g/ha (ARROWHEAD; 0250 G/HA) of 0%. The pest or weed control at 500 g/ha (ARROWHEAD; 0500 G/HA) was 20%, the pest or weed control at 1000 g/ha (ARROWHEAD; 1000 G/HA) was 35% and the pest or weed control at 64 g/ha (SCIRPUS; 0064 G/HA) was 0%. For the same compound, the pest or weed control at 125 g/ha (SCIRPUS; 0125 G/HA) was 0%, the pest or weed control at 250 g/ha (SCIRPUS; 0250 G/HA) was 0% and the pest or weed control at 500 g/ha (SCIRPUS; 0500 G/HA) was 0%. The pest or weed control at 1000 g/ha (SCIRPUS; 1000 G/HA) was 0%, the pest or weed control at 64 g/ha (BARNYARDGRASS; 0064 G/HA) was 0% and the pest or weed control at 125 g/ha (BARNYARDGRASS; 0125 G/HA) was 0%. It also gave a pest or weed control at 250 g/ha (BARNYARDGRASS; 0250 G/HA) of 0%, a pest or weed control at 500 g/ha (BARNYARDGRASS; 0500 G/HA) of 40% and a pest or weed control at 1000 g/ha (BARNYARDGRASS; 1000 G/HA) of 60%. For the same compound, the pest or weed control at 64 g/ha (RICE INDICA EFF; 0064 G/HA) was 0%, the pest or weed control at 125 g/ha (RICE INDICA EFF; 0125 G/HA) was 0% and the pest or weed control at 250 g/ha (RICE INDICA EFF; 0250 G/HA) was 0%. It also gave a pest or weed control at 500 g/ha (RICE INDICA EFF; 0500 G/HA) of 30%, a pest or weed control at 1000 g/ha (RICE INDICA EFF; 1000 G/HA) of 50% and a pest or weed control at 64 g/ha (RICE JAP EFF; 0064 G/HA) of 0%. The pest or weed control at 125 g/ha (RICE JAP EFF; 0125 G/HA) was 0%, the pest or weed control at 250 g/ha (RICE JAP EFF; 0250 G/HA) was 0% and the pest or weed control at 500 g/ha (RICE JAP EFF; 0500 G/HA) was 50%. For the same compound, the pest or weed control at 1000 g/ha (RICE JAP EFF; 1000 G/HA) was 70%, the pest or weed control at 64 g/ha (WATERCHESTNUT; 0064 G/HA) was 0% and the pest or weed control at 125 g/ha (WATERCHESTNUT; 0125 G/HA) was 0%. The pest or weed control at 250 g/ha (WATERCHESTNUT; 0250 G/HA) was 0%, the pest or weed control at 500 g/ha (WATERCHESTNUT; 0500 G/HA) was 40% and the pest or weed control at 1000 g/ha (WATERCHESTNUT; 1000 G/HA) was 50%. The pest or weed control at 64 g/ha (WATER PLAINTAIN; 0064 G/HA) was 0%, the pest or weed control at 125 g/ha (WATER PLAINTAIN; 0125 G/HA) was 0% and the pest or weed control at 250 g/ha (WATER PLAINTAIN; 0250 G/HA) was 0%. It also gave a pest or weed control at 500 g/ha (WATER PLAINTAIN; 0500 G/HA) of 20% and a pest or weed control at 1000 g/ha (WATER PLAINTAIN; 1000 G/HA) of 40%.

Source: patent US4965280A, “Antifungal carbinols” (E. I. Du Pont de Nemours and Company, priority 1989, dated 1990)
